Experimental data reported in paper PMC6254723, “Synthesis and Pharmacological Screening of Several Aroyl and Heteroaroyl Selenylacetic Acid Derivatives as Cytotoxic and Antiproliferative Agents” (Molecules, 2009).
Where two headings read alike, the source gives them in different places.

Tests used:
[1] = system: PC-3 cell line; test: MTT cytotoxicity assay in PC-3
Procedure: The results are tabulated as IC50 values. All experiments were independently performed at least three times and the values were calculated after 72 hours exposure (drug concentrations of 2, 5, 7 and 10 μM).
PC-3 cells were seeded in 96-well plates (Millipore, Eschborn, Germany) at a density of 5 × 10^3 cells per well. The samples were incubated at 37 °C under 5% CO2 overnight prior to the addition of the compounds. Compounds were diluted in complete medium. After 3 days of incubation, 10 μL MTT solution (5 mg/mL in PBS) was added to the cells in each well and these were stored for an additional 4 h at 37 °C. […] The percentage of viable cells was calculated to obtain IC50-values.
PC-3 are human tumorigenic and metastatic prostate cancer cells and these were obtained from American Type Culture Collection (ATCC, Manassas, VA, USA) (passage 36).

[2] = system: CCRF-CEM; test: MTT cytotoxicity assay (NCI) in CCRF-CEM; type: cell-based, human; settings: 72 h; for TGI CCRF-CEM: dose that completely inhibits cell growth; for LD50 CCRF-CEM: dose that kills 50% of cells; for GI50: Homo sapiens, CCRF-CEM, dose that inhibits 50% of cell growth, read-out: GI50 CCRF-CEM
Procedure: (§1) In order to investigate the effect of the active compounds in more detail, we examined the activity on proliferation in other cancer cell lines. […] Tests were carried out in the Department of Health Science, Public University of Navarra against a panel of four human tumour cell lines: lung (HTB-54), colon (HT-29), leukaemia (CCRF-CEM) and breast adenocarcinoma (MCF-7). Cytotoxicity assays were performed based on the reactivity of MTT [3-(4,5-dimethylthiazol-2-yl)-2,5-diphenyl-tetrazolium bromide], as described by NCI [39]. […] Doxorubicin was used as a control. As guidance with regard to selectivity, all of the compounds were further examined for toxicity in a mammary gland cell culture derived from non-malignant cells (184B5). Drug concentrations ranged from 0.01 to 100 μM.
(§2) The cytotoxic effects of each substance were tested at five different doses between 0.01 and 100 μM. Each substance was initially dissolved in DMSO at a concentration of 0.1 M, and serial dilutions were prepared using culture medium. The plates with cells from the different lines, to which medium containing the substance under test were added, were incubated for 72 h at 37 °C in a humidified atmosphere containing 5% CO2. European Collection of Cell Cultures (ECACC) or American Type Culture Collection (ATCC) provided human tumour cell lines. Four cell lines were used: one human lymphocytic leukemia (CCRF-CEM) and three human solid tumours, one colon carcinoma (HT-29), one lung carcinoma (HTB-54) and one breast adenocarcinoma (MCF-7). CCRF-CEM, HT-29 and HTB-54 cells were grown in RPMI 1640 medium (Life Technologies, Carlsbad, CA, USA) supplemented with 10% foetal calf serum, 2 mM L-glutamine, 100 units/mL penicillin, 100 μg/mL streptomycin and 10 mM HEPES buffer (pH = 7.4). MCF-7 cells were grown in EMEM medium (Clonetics) supplemented with 10% foetal calf serum, 2 mM L-glutamine, 100 units/mL penicillin and 100 μg/mL streptomycin. 184B5 cells were grown Hams F-12/DMEM (50:50) supplemented as described by Li et al.. Cytotoxicity was then determined by the MTT method. […] Data were obtained from at least three independent experiments performed in quadruplicate.

[3] = system: HTB-54; test: MTT cytotoxicity assay (NCI) in HTB-54; type: cell-based, human; settings: 72 h; for TGI HTB-54: dose that completely inhibits cell growth; for LD50 HTB-54: dose that kills 50% of cells; for GI50: Homo sapiens, HTB-54, dose that inhibits 50% of cell growth, read-out: GI50 HTB-54
Procedure: as §1, §2

[4] = system: HT-29; test: MTT cytotoxicity assay (NCI) in HT-29; type: cell-based, human; settings: 72 h; for TGI HT-29: dose that completely inhibits cell growth; for LD50 HT-29: dose that kills 50% of cells; for GI50: Homo sapiens, HT-29, dose that inhibits 50% of cell growth, read-out: GI50 HT-29
Procedure: as §1, §2

[5] = system: MCF-7; test: MTT cytotoxicity assay (NCI) in MCF-7; type: cell-based, human; settings: 72 h; for TGI MCF-7: dose that completely inhibits cell growth; for LD50 MCF-7: dose that kills 50% of cells; for GI50: Homo sapiens, MCF7, dose that inhibits 50% of cell growth, read-out: GI50 MCF-7
Procedure: as §1, §2

[6] = MTT toxicity assay in non-malignant mammary gland cells 184B5; type: cell-based; settings: human
Procedure: as §1, §2

[7] = system: 184B5; test: as above; type: cell-based; settings: for LD50 184B5 / TGI 184B5: 72 h; for LD50 184B5: non-malignant cells, dose that kills 50% of cells; for TGI 184B5: human
Procedure: as §1, §2

[8] = system: MCF-7; settings: comparison drugs, MCF-7 by context; no reference given; cited from earlier work
[9] = Homo sapiens, PC-3, 72 h, read-out: IC50 PC-3 cell line
[10] = Homo sapiens, PC-3, read-out: IC50 (cytotoxic activity in PC-3 cell line)
[11] = 72 h exposure, MTT, drug concentrations 2, 5, 7 and 10 μM, NE = no effect is observed
[12] = read-out: IC50 PC-3 cell line, 72 h exposure, MTT, drug concentrations 2, 5, 7 and 10 μM, NE = no effect is observed

N#Cc1ccc(C(=O)[Se]CC(=O)O)cc1 [Compound 2, (4-cyanobenzoylselenyl)acetic acid]
IC50 [1, 9]: 10 µM | IC50 [1, 10]: 10 µM | TGI CCRF-CEM [2]: >100 µM | LD50 CCRF-CEM [2]: >100 µM | GI50 [2]: > 100 µM | TGI HTB-54 [3]: 9.91 µM | LD50 HTB-54 [3]: >100 µM | GI50 [3]: 1.9 µM | TGI HT-29 [4]: 51.95 µM | LD50 HT-29 [4]: >100 µM | GI50 [4]: 8.95 µM | TGI MCF-7 [5]: 6.54 µM | LD50 MCF-7 [5]: 23.12 µM | GI50 [5]: 2.64 µM | GI50 at 72 h [6]: 2.29 µM | LD50 184B5 [7]: 78.91 µM | selectivity index (184B5/MCF-7 LD50 ratio) ([7]; LD50 in 184B5 divided by LD50 in MCF-7): 3.4 | TGI 184B5 [7]: 20.14 µM

O=C(O)C[Se]C(=O)c1ccc(C(F)(F)F)cc1 [Compound 3, (4-trifluoromethylbenzoylselenyl)acetic acid]
IC50 [1, 9]: > 10 µM | IC50 [1, 10]: > 10 µM

O=C(O)C[Se]C(=O)c1ccc(Cl)cc1 [Compound 4, (4-chlorobenzoylselenyl)acetic acid]
IC50 [1, 9]: > 10 µM | IC50 [1, 10]: > 10 µM

Cc1ccc(C(=O)[Se]CC(=O)O)cc1 [Compound 5, (4-methylbenzoylselenyl)acetic acid]
IC50 [1, 9]: > 10 µM | IC50 [1, 10]: > 10 µM

CC(C)(C)c1ccc(C(=O)[Se]CC(=O)O)cc1 [Compound 6, (4-tert-butylbenzoyl-selenyl)acetic acid]
IC50 [1, 9]: > 10 µM | IC50 [1, 10]: > 10 µM

O=C(O)C[Se]C(=O)c1ccccc1Cl [Compound 8, (2-chlorobenzoylselenyl)acetic acid]
IC50 [1, 9]: > 10 µM | IC50 [1, 10]: > 10 µM

O=C(O)C[Se]C(=O)c1ccccc1Br [Compound 9, (2-bromobenzoylselenyl)acetic acid]
IC50 [1, 9]: > 10 µM | IC50 [1, 10]: > 10 µM

O=C(O)C[Se]C(=O)c1ccccc1I [Compound 10, (2-iodobenzoylselenyl)acetic acid]
IC50 [1, 9]: > 10 µM | IC50 [1, 10]: > 10 µM

O=C(O)C[Se]C(=O)Cc1ccccc1 [Compound 11, Phenylacetoylselenylacetic acid]
IC50 [1, 9]: 2.9 µM | IC50 [1, 10]: 2.9 µM | TGI CCRF-CEM [2]: >100 µM | LD50 CCRF-CEM [2]: >100 µM | GI50 [2]: > 100 µM | TGI HTB-54 [3]: >100 µM | LD50 HTB-54 [3]: >100 µM | GI50 [3]: 11.1 µM | TGI HT-29 [4]: 72.19 µM | LD50 HT-29 [4]: >100 µM | GI50 [4]: 16.2 µM | TGI MCF-7 [5]: 4.18 µM | TGI MCF-7 ([5]; listed as benzyl): 6.19 µM | LD50 MCF-7 [5]: 53.49 µM | GI50 [5]: 0.006 µM | GI50 at 72 h [6]: 1.05 µM | LD50 184B5 [7]: 72.34 µM | TGI 184B5 [7]: 9.64 µM

O=C(O)C[Se]C(=O)c1cc(Cl)cc(Cl)c1 [Compound 13, (3,5-dichlorobenzoylselenyl)acetic acid]
IC50 [1, 9]: > 10 µM | IC50 [1, 10]: > 10 µM

COc1cc(OC)cc(C(=O)[Se]CC(=O)O)c1 [Compound 14, (3,5-dimethoxy-benzoylselenyl)acetic acid]
IC50 [1, 9]: 4 µM | IC50 [1, 10]: 4 µM | TGI CCRF-CEM [2]: >100 µM | LD50 CCRF-CEM [2]: >100 µM | GI50 [2]: > 100 µM | TGI HTB-54 [3]: >100 µM | LD50 HTB-54 [3]: >100 µM | GI50 [3]: 16.8 µM | TGI HT-29 [4]: 47.42 µM | LD50 HT-29 [4]: >100 µM | GI50 [4]: 5.99 µM | TGI MCF-7 [5]: 6.19 µM | TGI MCF-7 ([5]; listed as 3,5-dimethoxyphenyl): 4.18 µM | LD50 MCF-7 [5]: 52.65 µM | GI50 [5]: 1.57 µM | GI50 at 72 h [6]: 0.0009 µM | LD50 184B5 [7]: 62.55 µM | TGI 184B5 [7]: 8.21 µM

COc1cc(C(=O)[Se]CC(=O)O)cc(OC)c1OC [Compound 15, (3,4,5-trimethoxybenzoylselenyl)acetic acid]
IC50 PC-3 cell line [1, 11]: suppression of the antitumour activity | IC50 [1, 9]: > 10 µM | IC50 [1, 10]: > 10 µM

O=C(O)C[Se]C(=O)c1ccc2c(c1)OCO2 [Compound 16, (3,4-methylenedioxy-benzoylselenyl) acetic acid]
IC50 [1, 9]: > 10 µM | IC50 [1, 10]: > 10 µM

O=C(O)C[Se]C(=O)c1ccc2ccccc2c1 [Compound 17, (2-naphthoylselenyl)acetic acid]
IC50 [1, 9]: > 10 µM

O=C(O)C[Se]C(=O)C(c1ccccc1)c1ccccc1 [Compound 18, (diphenylacetylselenyl)acetic acid]
IC50 [1, 9]: > 10 µM

O=C(O)C[Se]C(=O)c1ccncc1 [Compound 19, (4-pyridoylselenyl)acetic acid]
IC50 [1, 9]: > 10 µM | IC50 [1, 10]: > 10 µM

O=C(O)C[Se]C(=O)c1cccnc1 [Compound 20, (3-pyridoylselenyl)acetic acid]
IC50 [1, 9]: > 10 µM | IC50 [1, 10]: > 10 µM

O=C(O)C[Se]C(=O)c1cccnc1Cl [Compound 21, (3-(2-chloro)-pyridoylselenyl)acetic acid]
IC50 [1, 9]: 10 µM | IC50 [1, 10]: 10 µM | TGI CCRF-CEM [2]: >100 µM | LD50 CCRF-CEM [2]: >100 µM | GI50 [2]: > 100 µM | TGI HTB-54 [3]: >100 µM | LD50 HTB-54 [3]: >100 µM | GI50 [3]: 11.8 µM | TGI HT-29 [4]: 60.94 µM | LD50 HT-29 [4]: >100 µM | GI50 [4]: 7.53 µM | TGI MCF-7 [5]: 8.27 µM | LD50 MCF-7 [5]: 89.21 µM | GI50 [5]: 0.003 µM | GI50 at 72 h [6]: 0.05 µM | LD50 184B5 [7]: 7.20 µM | TGI 184B5 [7]: 1.89 µM

CCCSc1ncccc1C(=O)[Se]CC(=O)O [Compound 22, (3-(2-propylthio)pyridoylselenyl)acetic acid]
IC50 [1, 9]: > 10 µM | IC50 [1, 10]: > 10 µM

O=C(O)C[Se]C(=O)c1cccs1 [Compound 23, (2-thienoylselenyl)-acetic acid]
IC50 [1, 9]: > 10 µM | IC50 [1, 10]: > 10 µM

O=C(O)C[Se]C(=O)c1cnccn1 [Compound 24, (pyrazinoylselenyl)acetic acid]
IC50 [1, 9]: > 10 µM | IC50 [1, 10]: > 10 µM

O=C(O)C[Se]C(=O)c1ccc2ccccc2n1 [Compound 25, (2-quinoloylselenyl)acetic acid]
IC50 [1, 9]: > 10 µM

O=C(O)C[Se]C(=O)c1cnc2ccccc2c1 [Compound 26, (3-quinoloylselenyl)acetic acid]
IC50 [1, 9]: > 10 µM

COc1cccc2c1C(=O)c1c(O)c3c(c(O)c1C2=O)C[C@@](O)(C(=O)CO)C[C@@H]3O[C@H]1C[C@H](N)[C@H](O)[C@H](C)O1 [Doxorub., doxorubicin, reference compound]
TGI CCRF-CEM [2]: 0.071 µM | LD50 CCRF-CEM [2]: 0.29 µM | GI50 [2]: 0.033 µM | TGI HTB-54 [3]: 1.25 µM | LD50 HTB-54 [3]: 3.45 µM | GI50 [3]: < 0.01 µM | TGI MCF-7 [5]: >100 µM | LD50 MCF-7 [5]: >100 µM | GI50 [5]: 0.88 µM

CC(=O)O[C@H]1C(=O)[C@@]2(C)[C@H]([C@H](OC(=O)c3ccccc3)[C@]3(O)C[C@H](OC(=O)[C@H](O)[C@@H](NC(=O)c4ccccc4)c4ccccc4)C(C)=C1C3(C)C)[C@]1(OC(C)=O)CO[C@@H]1C[C@@H]2O [paclitaxel]
GI50 [8]: 0.01 µM | TGI [8]: 20 ± 1.9 µM

(3-phenyl-propanonylselenyl)acetic acid [Compound 12]
IC50 [1, 12]: > 10 µM

(4-methoxyphenylselenyl)acetic acid [Compound 7]
IC50 PC-3 cell line [1, 11]: inactive | IC50 ([1]; read-out: IC50 (cytotoxic activity in PC-3 cell line), as repeated in Table 5, NE = no effect): > 10 µM | IC50 [1, 12]: > 10 µM
